# Source: ChEMBL document CHEMBL5291721, “A preclinical secondary pharmacology resource illuminates target-adverse drug reaction associations of marketed drugs” (Nat Commun, 2023)
# Key:
# [1] = biological target: T1, Corticotropin-releasing factor receptor 1 (Homo sapiens, UniProt P34998)
# T1 sequence (P34998 whole entry): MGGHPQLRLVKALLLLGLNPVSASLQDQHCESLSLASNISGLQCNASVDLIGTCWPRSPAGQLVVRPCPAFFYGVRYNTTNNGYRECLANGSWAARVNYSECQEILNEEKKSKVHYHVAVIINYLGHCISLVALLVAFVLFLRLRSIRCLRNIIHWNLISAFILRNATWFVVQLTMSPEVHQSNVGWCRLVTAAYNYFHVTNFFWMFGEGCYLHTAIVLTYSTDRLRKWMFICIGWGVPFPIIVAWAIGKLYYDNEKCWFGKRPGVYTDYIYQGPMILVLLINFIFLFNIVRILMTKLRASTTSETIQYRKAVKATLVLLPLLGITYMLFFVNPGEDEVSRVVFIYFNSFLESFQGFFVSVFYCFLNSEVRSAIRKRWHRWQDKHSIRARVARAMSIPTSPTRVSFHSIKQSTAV
# Cannabinoid receptor 1 = Cannabinoid receptor 1 (Homo sapiens, UniProt P21554)
# Sequence of Cannabinoid receptor 1 (P21554 whole entry): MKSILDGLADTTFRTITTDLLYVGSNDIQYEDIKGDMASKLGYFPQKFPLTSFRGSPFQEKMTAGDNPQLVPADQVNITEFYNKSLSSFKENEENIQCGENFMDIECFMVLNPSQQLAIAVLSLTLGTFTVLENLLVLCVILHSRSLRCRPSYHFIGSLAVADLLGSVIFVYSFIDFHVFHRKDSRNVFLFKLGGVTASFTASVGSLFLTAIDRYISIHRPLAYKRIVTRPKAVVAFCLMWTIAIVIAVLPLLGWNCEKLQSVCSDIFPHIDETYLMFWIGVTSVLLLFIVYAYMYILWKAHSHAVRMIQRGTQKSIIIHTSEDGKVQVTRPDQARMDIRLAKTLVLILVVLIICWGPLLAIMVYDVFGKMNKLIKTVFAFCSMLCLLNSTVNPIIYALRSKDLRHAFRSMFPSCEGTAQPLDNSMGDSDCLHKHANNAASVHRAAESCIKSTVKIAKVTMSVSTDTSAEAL
# [2] = biological target: T2, Gastric inhibitory polypeptide receptor (Homo sapiens, UniProt P48546)
# T2 sequence (P48546 whole entry): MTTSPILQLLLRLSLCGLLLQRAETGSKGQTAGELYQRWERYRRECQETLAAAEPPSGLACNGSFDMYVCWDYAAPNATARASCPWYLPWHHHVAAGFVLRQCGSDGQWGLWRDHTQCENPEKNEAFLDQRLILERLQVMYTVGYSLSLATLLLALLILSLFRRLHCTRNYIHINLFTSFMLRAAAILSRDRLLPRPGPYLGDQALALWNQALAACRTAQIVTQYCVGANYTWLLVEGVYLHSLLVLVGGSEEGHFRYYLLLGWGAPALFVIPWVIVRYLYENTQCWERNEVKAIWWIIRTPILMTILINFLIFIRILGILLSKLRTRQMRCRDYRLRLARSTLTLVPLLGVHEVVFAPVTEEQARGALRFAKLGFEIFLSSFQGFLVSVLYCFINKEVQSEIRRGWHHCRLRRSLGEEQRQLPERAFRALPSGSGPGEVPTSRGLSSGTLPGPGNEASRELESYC
# Glucagon receptor = Glucagon receptor (Homo sapiens, UniProt P47871)
# Sequence of Glucagon receptor (P47871 whole entry): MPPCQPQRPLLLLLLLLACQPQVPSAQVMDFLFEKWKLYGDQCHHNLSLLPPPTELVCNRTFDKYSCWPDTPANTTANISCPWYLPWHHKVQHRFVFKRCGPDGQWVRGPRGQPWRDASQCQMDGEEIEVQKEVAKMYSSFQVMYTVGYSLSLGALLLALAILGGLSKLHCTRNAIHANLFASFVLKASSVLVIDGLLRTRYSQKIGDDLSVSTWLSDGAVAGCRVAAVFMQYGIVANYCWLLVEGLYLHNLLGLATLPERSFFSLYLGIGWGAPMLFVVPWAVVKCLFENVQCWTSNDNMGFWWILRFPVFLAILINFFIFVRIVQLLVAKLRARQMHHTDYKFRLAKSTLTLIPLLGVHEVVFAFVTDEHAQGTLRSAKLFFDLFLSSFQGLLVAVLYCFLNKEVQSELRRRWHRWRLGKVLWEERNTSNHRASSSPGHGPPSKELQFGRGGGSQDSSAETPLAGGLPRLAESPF
# Estrogen receptor = biological target: T3, Estrogen receptor (Homo sapiens, UniProt P03372)
# T3 sequence (P03372 whole entry): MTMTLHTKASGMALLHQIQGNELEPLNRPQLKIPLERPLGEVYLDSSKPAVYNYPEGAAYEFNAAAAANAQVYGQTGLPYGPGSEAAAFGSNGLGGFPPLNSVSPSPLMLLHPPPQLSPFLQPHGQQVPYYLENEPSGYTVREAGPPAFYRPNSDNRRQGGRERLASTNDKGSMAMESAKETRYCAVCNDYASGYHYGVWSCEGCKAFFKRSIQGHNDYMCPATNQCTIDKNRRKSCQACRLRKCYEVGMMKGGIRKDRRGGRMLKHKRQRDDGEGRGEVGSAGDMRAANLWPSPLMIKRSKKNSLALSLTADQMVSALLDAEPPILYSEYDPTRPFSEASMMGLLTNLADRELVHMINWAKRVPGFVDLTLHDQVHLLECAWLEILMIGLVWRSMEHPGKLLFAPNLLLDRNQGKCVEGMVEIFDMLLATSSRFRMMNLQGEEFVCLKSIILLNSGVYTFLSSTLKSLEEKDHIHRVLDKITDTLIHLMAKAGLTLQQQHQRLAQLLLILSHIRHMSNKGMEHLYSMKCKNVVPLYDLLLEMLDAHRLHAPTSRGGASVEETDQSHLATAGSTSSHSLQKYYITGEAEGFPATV
# [3] = biological target: T4, Endothelin receptor type B (Homo sapiens, UniProt P24530)
# T4 sequence (P24530 whole entry): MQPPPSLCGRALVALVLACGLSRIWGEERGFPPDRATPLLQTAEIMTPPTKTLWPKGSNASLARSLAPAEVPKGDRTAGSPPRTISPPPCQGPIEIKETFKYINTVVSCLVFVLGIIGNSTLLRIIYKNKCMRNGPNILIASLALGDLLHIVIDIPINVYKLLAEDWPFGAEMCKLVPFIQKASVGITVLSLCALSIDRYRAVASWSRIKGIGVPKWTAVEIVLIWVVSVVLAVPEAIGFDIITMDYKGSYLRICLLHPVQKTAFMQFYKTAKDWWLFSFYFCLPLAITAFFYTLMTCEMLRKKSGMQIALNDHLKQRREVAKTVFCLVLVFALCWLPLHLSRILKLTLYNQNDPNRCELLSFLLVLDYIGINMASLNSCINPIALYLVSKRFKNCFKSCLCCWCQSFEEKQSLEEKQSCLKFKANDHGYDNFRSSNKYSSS
# [4] = biological target: Muscarinic acetylcholine receptor M3 (Homo sapiens, UniProt P20309)
# Sequence of Muscarinic acetylcholine receptor M3 (P20309 whole entry): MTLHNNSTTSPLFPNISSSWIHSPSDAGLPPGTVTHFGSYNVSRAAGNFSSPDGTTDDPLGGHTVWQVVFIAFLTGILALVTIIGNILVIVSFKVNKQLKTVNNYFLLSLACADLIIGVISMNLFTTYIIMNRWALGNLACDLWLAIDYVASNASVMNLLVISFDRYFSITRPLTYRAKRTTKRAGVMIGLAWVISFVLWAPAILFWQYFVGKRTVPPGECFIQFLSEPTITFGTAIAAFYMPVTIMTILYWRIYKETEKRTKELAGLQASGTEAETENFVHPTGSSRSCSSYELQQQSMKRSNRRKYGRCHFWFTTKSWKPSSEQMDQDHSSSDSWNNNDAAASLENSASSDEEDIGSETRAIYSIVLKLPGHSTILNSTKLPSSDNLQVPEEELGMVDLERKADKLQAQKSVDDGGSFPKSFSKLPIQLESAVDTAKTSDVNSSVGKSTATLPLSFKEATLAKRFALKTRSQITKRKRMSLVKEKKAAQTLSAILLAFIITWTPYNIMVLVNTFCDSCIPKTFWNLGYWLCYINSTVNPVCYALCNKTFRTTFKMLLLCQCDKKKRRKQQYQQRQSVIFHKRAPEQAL
# [5] = biological target: T5, Alpha-2B adrenergic receptor (Homo sapiens, UniProt P18089)
# T5 sequence (P18089 whole entry): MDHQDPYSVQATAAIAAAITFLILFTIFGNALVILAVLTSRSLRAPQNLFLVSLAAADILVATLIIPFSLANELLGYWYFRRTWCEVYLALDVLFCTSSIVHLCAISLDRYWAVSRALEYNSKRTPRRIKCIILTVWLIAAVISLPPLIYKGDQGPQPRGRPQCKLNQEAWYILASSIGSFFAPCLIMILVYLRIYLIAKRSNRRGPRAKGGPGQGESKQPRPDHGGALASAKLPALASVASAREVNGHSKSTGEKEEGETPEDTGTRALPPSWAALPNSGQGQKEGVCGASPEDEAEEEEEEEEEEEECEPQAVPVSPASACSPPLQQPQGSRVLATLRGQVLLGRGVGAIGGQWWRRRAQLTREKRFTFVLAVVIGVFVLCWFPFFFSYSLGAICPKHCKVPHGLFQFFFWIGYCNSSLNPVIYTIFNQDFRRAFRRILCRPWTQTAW
# Note: assay procedure not described here.
SMILES,AC50 [1] [µM],AC50 (Cannabinoid receptor 1) [µM],AC50 [2] [µM],AC50 (Glucagon receptor) [µM],AC50 (Estrogen receptor) [µM],AC50 [3] [µM],AC50 [4] [µM],AC50 [5] [µM]
Cc1ccc(C)c(OCCCC(C)(C)C(=O)O)c1 [GEMFIBROZIL],> 30,> 10,> 30,> 30,> 30,> 30,–,–
COc1ccccc1OC1(C)OC(=O)c2ccccc2O1 (stereo not given) [GUAIMESAL],–,–,–,–,> 30,–,–,–
CCCCCCCN(CC)CCCC(O)c1ccc(NS(C)(=O)=O)cc1 (stereo not given) [IBUTILIDE],–,> 30,–,–,–,–,21,18
COc1cc(C(C)=O)ccc1OCCCN1CCC(c2noc3cc(F)ccc23)CC1 [ILOPERIDONE],–,–,–,–,–,–,> 30,0.105
CC[C@H](C)C(=O)O[C@H]1C[C@@H](C)C=C2C=C[C@H](C)[C@H](CC[C@@H]3C[C@@H](O)CC(=O)O3)[C@H]21 [LOVASTATIN],> 30,> 10,> 30,> 30,> 30,> 30,–,–
CC[C@@H](CO)NC(=O)[C@@H]1C=C2c3cccc4c3c(cn4C)C[C@H]2N(C)C1 [METHYSERGIDE],> 30,> 10,> 30,> 30,> 10,> 30,–,–
CNC(=C[N+](=O)[O-])NCCSCc1csc(CN(C)C)n1 [NIZATIDINE],–,> 10,–,–,–,–,–,–
CN1Cc2c(N)cccc2C(c2ccccc2)C1 (stereo not given) [NOMIFENSINE],–,–,–,–,–,–,> 30,> 30
CC(CN1c2ccccc2Sc2ccccc21)N(C)C (stereo not given) [PROMETHAZINE],> 30,> 10,> 30,> 30,–,> 30,–,–
CCCc1cc(=O)[nH]c(=S)[nH]1 [PROPYLTHIOURACIL],–,> 10,–,–,> 10,–,–,–
Cn1cc(C(=O)[C@@H]2CCc3nc[nH]c3C2)c2ccccc21 [RAMOSETRON],–,–,–,–,> 30,–,> 30,0.34
CN(CCOc1ccc(CC2SC(=O)NC2=O)cc1)c1ccccn1 (stereo not given) [ROSIGLITAZONE],> 30,16,> 30,> 30,> 30,> 30,–,–
S=P(N1CC1)(N1CC1)N1CC1 [THIOTEPA],–,–,–,–,–,–,9.3,–
CC(C)C[C@H](NC(=O)[C@@H](O)[C@H](N)Cc1ccccc1)C(=O)O [UBENIMEX],–,–,–,–,> 30,–,–,–
CC(C)[C@H](N)C(=O)OCCOCn1cnc2c(=O)[nH]c(N)nc21 [VALACYCLOVIR],> 30,> 10,> 30,> 30,> 30,> 30,–,–
COc1cc(C(=O)NS(=O)(=O)c2ccccc2C)ccc1Cc1cn(C)c2ccc(NC(=O)OC3CCCC3)cc12 [ZAFIRLUKAST],–,> 10,–,–,> 30,–,–,–
O=C1Cc2cc(CCN3CCN(c4nsc5ccccc45)CC3)c(Cl)cc2N1 [ZIPRASIDONE],> 30,> 10,> 30,> 30,> 30,> 30,> 10,–
